Assay results published in patent publication US7572612B2, “Method of production of para-hydroxycinnamic acid using a thermostable TAL enzyme” (E.I. du Pont de Nemours and Company, priority 2006, dated 2009).

How the values were obtained:
[1] = test system: Phanerochaete chrysosporium tyrosine ammonia lyase PcTAL (PAL/TAL enzyme), wild type, SEQ ID NO:1; assay: Kinetic parameters of the PcTAL enzyme for tyrosine and phenylalanine; format: biochemical; conditions: 45° C., 100 mM CAPS, pH 9.5 buffer
Procedure: The PAL and TAL activities of the purified enzymes were measured using a spectrophotometer according to Abell et al., [Phenylalanine Ammonia-lyase from Yeast Rhodotorula glutinis,” Methods Enzymol. 142:242-248 (1987)]. The assay for PAL determination was initiated by addition of the enzyme to a 50 mM Tris-HCl (pH 8.5) buffer solution containing 1.0 mM L-phenylalanine. The reaction was followed by monitoring the CA production at λ290 nm and the activity was calculated using a molar extinction coefficient of […]. The assay was run over a 5 min period using an amount of enzyme that produced absorbance changes in the range of 0.0075 to 0.018/min. One unit of activity indicated deamination of 1.0 micro-mol of phenylalanine to CA per minute. The TAL activity was similarly measured using tyrosine, instead of phenylalanine, in the reaction solution. The absorbance of the pHCA produced was followed at λ315 nm and the activity was determined using an extinction coefficient of 10,000 cm^−1 for pHCA. One unit of activity indicated deamination of 1.0 micro-mol of tyrosine to pHCA per minute. Some TAL assays were performed at pH 9.5 or 10.0 in 100 mM CAPS buffer. The TAL activity was measured as described above, except that the extinction coefficient was 16,800 cm^−1 for pHCA.
The TAL assay was typically performed in a 1.5 ml capacity UV grade disposable cuvette (VWR) at 35° C. using a Perkin-Elmer Lamba20 spectrophotometer (Wellesley, Mass.). The reaction (1.0 ml volume) contained the soluble protein sample, 100 mM CAPS pH10 buffer and 10 mM tyrosine and was monitored for 3 minutes at I315 nm. The TAL activity (U/g) was calculated as follows: Total TAL activity (mM/min)=D315 nm/min×[…] divided by pHCA extinction coefficient (M^−1 cm^−1)=D315 nm/min×[…] divided by 16,800 (M^−1 cm^−1). TAL specific activity (U/g)=total TAL activity (mM/min) divided by the amount of protein used in the assay. Gel Electrophoresis
Six grams of cell pellet, from the 10 liter fermentation of DPD5154 was resuspended in 6.0 mL Buffer A (10 mM Tris-HCl, pH 8.0, 200 μM EDTA) containing one EDTA-free protease inhibitor tablet (Roche Biosciences, Palo Alto, Calif.), 1.0 μg/ml Leupeptin, 1.0 μg/ml Pepstatin, 40 μg/ml Bestatin 5.0 mM CA. Cells were lysed by two passes through a French Pressure Cell at 20,000 PSI, and clarified by centrifugation at 12,000×g for 20 minutes. To the clarified supernatant, 1.0% streptomycin sulfate was added, and the suspension was gently mixed for 15 minutes at 4° C. and then clarified by centrifugation at 12,000×g for 20 minutes. The supernatant was heated at 60° C. for 20 min, and centrifuged again at 12,000×g for 20 minutes. […]

[2] = test system: Phanerochaete chrysosporium tyrosine ammonia lyase PcTAL (PAL/TAL enzyme), wild type, SEQ ID NO:1; assay: PcTAL substrate test with histidine; format: biochemical; conditions: 20 mM histidine, 100 mM diethanol amime at pH 9, 1.3 mM 2-mercaptoethanol, 0.1 mM MnCl2
Procedure: The increase of TAL and PAL activities with increasing substrate concentrations followed the typical Michaelis-Menton equation. The kcat of the enzyme was 1.3 S^−1 for tyrosine, and 3.3 S^−1 for phenylalanine. The KM was 44 μM for tyrosine and 161 μM for phenylalanine. The kcat/KM value was slightly higher for tyrosine (3.0 M^−1 S^−1) than for phenylalanine (2.1 M^−1 S^−1), indicating the enzyme's slight preference for tyrosine (PAL/TAL ratio of 0.7). […] The substrate specificity of the PcTAL enzyme is therefore similar to other known fungal PAL/TAL enzymes, such as that from R. glutinis, with dual specificity for tyrosine and phenylalanine.

acceptance as a substrate [2]	Structure (SMILES)	Km [1]	kcat [1]
–	N[C@@H](Cc1ccc(O)cc1)C(=O)O [tyrosine]	44 µM	1.3 S^−1
–	N[C@@H](Cc1ccccc1)C(=O)O [phenylalanine]	161 µM	3.3 S^−1
did not accept histidine as a substrate	N[C@@H](Cc1c[nH]cn1)C(=O)O [histidine]	–	–
